Laboratory results from patent US6472526B1, “Imidazole derivatives having an inhibitory activity for farnesyl transferase and process for preparation thereof” (LG Chemical Ltd., priority 1997, dated 2002).

Experiments:
Ras farnesyl transferase [1] = biological target: T1, Ras farnesyl transferase (Rattus norvegicus, UniProt Q02293+Q04631); test: In vivo (cellular) inhibitory activity for Ras farnesyl transferase, Rat2 cell line transformed with fused protein of H-Ras substituted with polybasic lysine domain at C-terminus of K-Ras; format: cell-based
T1 construct: endogenous in cells; host or cells: Rat2 fibroblasts transformed with H-Ras or with an H-Ras/K-Ras C-terminus fusion
How it was run: (§1)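 Transformed Rat2 fibroblasts (H-Ras or H-Ras/K-Ras polybasic-tail fusion) treated with compound in 1% DMSO; after 4 h labelled with [35S]methionine 150 μCi/ml for 20 h. Lysates immunoprecipitated with anti-Ras Y13-259, resolved by 13.5% SDS-PAGE and autoradiography; CIC50 = concentration inhibiting 50% of Ras farnesylation from band intensities.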

Ras farnesyl transferase [2] = biological target: T2, Ras farnesyl transferase (Homo sapiens, UniProt P49354+P49356); test: In vitro inhibitory activity for Ras farnesyl transferase, K-Ras substrate; format: biochemical
T2 construct: made in house

Ras farnesyl transferase [3] = biological target: T2, Ras farnesyl transferase; test: In vitro inhibitory activity for Ras farnesyl transferase, H-Ras substrate; format: biochemical
Ras farnesyl transferase [4] = biological target: T1, Ras farnesyl transferase; test: In vivo (cellular) inhibitory activity for Ras farnesyl transferase, Rat2 cell line which expresses C-Harvey-Ras protein; format: cell-based
How it was run: as §1

[5] = Rat2 cell line transformed with H-Ras fused with polybasic lysine domain of K-Ras C-terminus, concentration inhibiting 50% of farnesyl bonding, read-out: K-Ras CIC50
[6] = in vitro farnesyl transferase assay, K-Ras, read-out: K-Ras IC50
[7] = recombinant farnesyl transferase 4.5 nM, Ras substrate protein 1.5 μM, tritium-farnesylpyrophosphate 0.15 μM, 30 minutes at 37° C., read-out: H-Ras IC50
[8] = Rat2 cell line expressing C-Harvey-Ras, concentration inhibiting 50% of farnesyl bonding of Ras protein, read-out: H-Ras CIC50

Structure (SMILES) | IC50 (Ras farnesyl transferase [1]; [5]) [nM] | IC50 (Ras farnesyl transferase [2]; [6]) [nM] | IC50 (Ras farnesyl transferase [3]; [7]) [nM] | IC50 (Ras farnesyl transferase [4]; [8]) [nM] | IC50 (Ras farnesyl transferase [1]) [nM] | IC50 (Ras farnesyl transferase [2]) [nM] | IC50 (Ras farnesyl transferase [3]) [nM] | IC50 (Ras farnesyl transferase [4]) [nM]
COc1ccc(Cn2cncc2Cn2cc(C(=O)N3CCN(C)CC3)c(-c3cccc4ccccc34)c2)cc1 [Compound 130, 1-[1-(4-Methoxybenzyl)-1H-imidazol-5-yl] methyl-3-(4-methylpiperazin-1-yl)carbonyl-4-(naphthalen-1-yl)-1H-pyrrole] | 10000 to 50000 | 3 | 2 | 25 | – | – | – | –
CN1CCN(C(=O)c2cn(Cc3cncn3Cc3cccc(Cl)c3)cc2-c2cccc3ccccc23)CC1 [Compound 131, 1-[1-(3-Chlorobenzyl)-1H-imidazol-5-yl]methyl-3-(4-methylpiperazin-1-yl)carbonyl-4-(naphthalen-1-yl)-1H-pyrrole] | 10000 to 50000 | 2.3 | 1 | 12.5 | – | – | – | –
COCCN(C)C(=O)c1cn(Cc2cncn2Cc2cccc(Cl)c2)cc1-c1cccc2ccccc12 [Compound 132, 1-[1-(3-Chlorobenzyl)-1H-imidazol-5-yl]methyl-3-[N-(2-methoxyethyl)-N-methyl]carbamoyl-4-(naphthalen-1-yl)-1H-pyrrole] | 10000 to 50000 | 11 | 3.5 | 25 | – | – | – | –
CN1CCN(C(=O)c2cn(Cc3cncn3Cc3ccccc3Cl)cc2-c2cccc3ccccc23)CC1 [Compound 133, 1-[1-(2-Chlorobenzyl)-1H-imidazol-5-yl]methyl-3-(4-methylpiperazin-1-yl)carbonyl-4-(naphthalen-1-yl)-1H-pyrrole] | 10000 to 50000 | 2 | 0.65 | 25 | – | – | – | –
COCCN(C)C(=O)c1cn(Cc2cncn2Cc2ccccc2Cl)cc1-c1cccc2ccccc12 [Compound 134, 1-[1-(2-Chlorobenzyl)-1H-imidazol-5-yl]methyl-3-[N-(2-methoxyethyl)-N-methyl]carbamoyl-4-(naphthalen-1-yl)-1H-pyrrole] | 10000 to 50000 | 2 | 2.7 | 25 | – | – | – | –
CN1CCN(C(=O)c2cn(Cc3cncn3Cc3ccccc3F)cc2-c2cccc3ccccc23)CC1 [Compound 135, 1-[1-(2-Fluorobenzyl)-1H-imidazol-5-yl]methyl-3-(4-methylpiperazin-1-yl)carbonyl-4-(naphthalen-1-yl)-1H-pyrrole] | 10000 to 50000 | 4 | 2.4 | 30 | – | – | – | –
Cc1ccc(Cn2cncc2Cn2cc(C(=O)N3CCN(C)CC3)c(-c3cccc4ccccc34)c2)cc1 [Compound 136] | 10000 to 50000 | 2.4 | 1.6 | 25 | – | – | – | –
Cc1ccc(Cn2cncc2Cn2cc(C(=O)N3CCOCC3)c(-c3cccc4ccccc34)c2)cc1 [Compound 137] | 10000 to 20000 | 2.1 | 1.7 | 20 | – | – | – | –
Cc1cccc(Cn2cncc2Cn2cc(C(=O)N3CCN(C)CC3)c(-c3cccc4ccccc34)c2)c1 [Compound 138, 1-[1-(3-Methylbenzyl)-1H-imidazol-5-yl]methyl-3-(4-methylpiperazin-1-yl)carbonyl-4-(naphthalen-1-yl)-1H-pyrrole] | 10000 to 50000 | 3.5 | 1.4 | 25 | – | – | – | –
N#Cc1ccc(Cn2cncc2Cn2ccc(C(=O)c3cccc4ccccc34)c2)cc1 [Compound 139, 1-[1-(4-Cyanobenzyl)-1H-imidazol-5-yl]methyl-3-(naphthalen-1-yl)carbonyl-1H-pyrrole] | – | – | – | – | 7000 | 37000 | 5 | 70
O=C(c1ccn(Cc2cncn2Cc2ccc(Br)cc2)c1)c1cccc2ccccc12 [Compound 140, 1-[1-(4-Bromobenzyl)-1H-imidazol-5-yl]methyl-3-(naphthalen-1-yl)carbonyl-1H-pyrrole] | – | – | – | – | 10000 to 50000 | 10000 to 50000 | 90 | 1000 to 10000
COCCN(C)C(=O)c1cn(Cc2cncn2Cc2ccc(Br)cc2)cc1C(=O)c1cccc2ccccc12 [Compound 141] | – | – | – | – | 10000 to 50000 | 10000 to 100000 | 230 | 1000 to 10000
CCOC(=O)c1nc(Cc2cnc[nH]2)oc1-c1cccc2ccccc12 [Compound 142, 4-Ethoxycarbonyl-2-(1H-imidazol-5-ylmethyl)-5-(naphthalen-1-yl)oxazole] | > 50000 | > 50000 | 12000 | > 50000 | – | – | – | –
O=C(c1nc(Cc2cnc[nH]2)oc1-c1cccc2ccccc12)N1CCOCC1 [Compound 143, 2-(1H-Imidazol-5-ylmethyl)-4-(morpholin-4-yl)carbonyl-5-(naphthalen-1-yl)oxazole] | > 50000 | > 50000 | 1200 | 20000 | – | – | – | –
COC(=O)c1nc(Cc2cncn2Cc2ccc(Cl)cc2)sc1-c1cccc2ccccc12 [Compound 145, 2-[1-(4-Chlorobenzyl)-1H-imidazol-5-ylmethyl]-4-methoxycarbonyl-5-(naphthalen-1-yl)thiazole] | 25000 | 70 | 7 | 100 | – | – | – | –
COC(=O)c1sc(Cc2cncn2Cc2ccc(Cl)cc2)nc1-c1cccc2ccccc12 [Compound 148] | > 50000 | > 50000 | 1700 | 30000 | – | – | – | –
COC(=O)c1sc(Cc2cncn2CC2CCN(C(=O)OCc3ccccc3)CC2)nc1-c1cccc2ccccc12 [Compound 150] | > 50000 | > 50000 | 8000 | > 50000 | – | – | – | –
COCCN(C)C(=O)c1cn(Cc2cncn2Cc2ccc(Cl)cc2)nc1-c1cccc2ccccc12 [Compound 155, 1-[1-(4-Chlorobenzyl)-1H-imidazol-5-ylmethyl]-4-[N-(2-methoxyethyl)-N-methyl]-carbamoyl-3-(naphthalen-1-yl)-1H-pyrazole] | 15000 | 200 | 20 | 100 | – | – | – | –
COCCN(C)C(=O)c1cn(Cc2cncn2Cc2ccc(C#N)cc2)nc1-c1cccc2ccccc12 [Compound 156, 1-[1-(4-Cyanobenzyl)-1H-imidazol-5-ylmethyl]-4-[N-(2-methoxyethyl)-N-methyl]-carbamoyl-3-(naphthalen-1-yl)-1H-pyrazole] | 40000 | 200 | 20 | 100 | – | – | – | –
COCCN(C)C(=O)c1cn(Cc2cncn2C)nc1-c1cccc2ccccc12 [Compound 157, 1-[1-Methyl-1H-imidazol-5-ylmethyl]-4-[N-(2-methoxyethyl)-N-methyl]-carbamoyl-3-(naphthalen-1-yl)-1H-pyrazole] | > 50000 | 5000 | 10 | 100 | – | – | – | –
O=C(c1cn(Cc2cncn2Cc2ccc(Br)cc2)nc1-c1cccc2ccccc12)N1CCOCC1 [Compound 160, 1-[1-(4-Bromobenzyl)-1H-imidazol-5-ylmethyl]-4-(morpholin-4-yl)carbonyl-3-(naphthalen-1-yl)-1H-pyrazole] | 40000 | 3000 | 300 | 1500 | – | – | – | –
